Results taken from PubChem BioAssay (NCI).
Several values for one entry are separate records, joined by “and”; a condition that tells them apart may be missing. Equal entries are not always repeated.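 The compound was tested at five concentrations on cells cultured in 96-well plates, with a 48-hour exposure period. GI50 is the concentration that inhibits growth by half. TGI marks complete inhibition of growth.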

Columns and labels:
[1] = tested on: P388/ADR leukemia; assay: NCI tumour cell line growth inhibition, 48 h
[2] = tested on: P388 leukemia; assay: NCI tumour cell line growth inhibition, 48 h

SMILES | TGI [1] | GI50 [2] | TGI [2] | GI50 [1] [nM]
O=NN(CCCl)C(=O)NC1CCC(CC2CCC(NC(=O)N(CCCl)N=O)CC2)CC1 (stereo not given) | 5030 nM |  |  | 
CNCCN=c1ccc2c3c1c(O)c1c(O)ccc(=O)c1c3[nH]n2CCNCCO | 16300 nM and 32900 nM | < 17.2 nM and 84.5 nM | 44.8 nM and 246 nM | 751
